{
  "source": "paper PMC12123601",
  "about": "“Light-Induced, Lysine-Targeting Irreversible Covalent Inhibition of the Human Oxygen Sensing Hydroxylase Factor Inhibiting HIF (FIH)” (Journal of the American Chemical Society, 2025)",
  "system": "EGLN3 mRNA level in Hep3B cells",
  "assay": "qRT-PCR of FIH-dependent HIF target gene EGLN3 in Hep3B cells",
  "type": "cell-based",
  "settings": "for Upregulation of EGLN3 expression: absence of irradiation",
  "description": "5 […] sustainably engages with FIH and regulates the expression of FIH-dependent HIF target gene EGLN3 in Hep3B cells. (A) The CETSA assay was carried out with Hep3B cells grown in the presence of NBA-ZG-2291 (50 μM) for 12–48 h after 30 min of light activation (365 nm, 16 W). The intensity of the bands for grayscale analysis was referenced to the starting temperature (37 °C). α-Actinin was the sample loading control. n = 2; mean ± SD. […] (E) Correlation heatmap of the NBA-ZG-2291-treated group and the siFIH group by RNA-sequencing analysis. […] The relative fold change with respect to DMSO treated sample is shown (with normalization to HPRT gene levels). Mean ± SEM; n = 3. (G) TG level of NBA-ZG-2291-treated 3T3-L1-derived adipocytes. Mean ± SEM; n = 3. (H) Representative Oil Red O-stained images of the control, ZG-2291-treated, and NBA-ZG-2291-treated 3T3-L1-derived adipocytes. Scale Bar, 30 μm. P values were analyzed by two-way ANOVA comparing with the vehicle/control group (*, P < 0.05; **, P < 0.01; ***, P < 0.001, ****, P < 0.0001). See Methods (Quantitative PCR Analysis of Gene Expression) for assay details. TEXT PRINTED IN THE PICTURE: (A) no label printed: FIH: ΔTm (°C): 8.87 (Incubation time: 12 h); FIH: ΔTm (°C): 9.28 (Incubation time: 24 h); FIH: ΔTm (°C): 8.86 (Incubation time: 48 h); α-actinin: ΔTm (°C): 0.30 (Incubation time: 12 h); α-actinin: ΔTm (°C): -0.03 (Incubation time: 24 h); α-actinin: ΔTm (°C): -0.45 (Incubation time: 48 h) DOUBTS OF THE COPYIST ABOUT THIS PICTURE: Panel A: the picture prints no substance label with the ΔTm tables, so the label is left empty\nThe Egl-9 family hypoxia-inducible factor 3 gene (EGLN3, PHD3) is a HIF target gene, expression of which is negatively regulated by FIH catalysis, , potentially in a context-dependent manner. We therefore investigated the effect of the light-induced covalent inhibitor NBA-ZG-2291 on EGLN3 expression levels in Hep3B cells using ZG-2291 as a positive inhibition control. […] At a concentration of 10 μM, NBA-ZG-2291 increased EGLN3 expression by ∼2.5-fold with irradiation.\nWe also compared the time-dependent regulation of NBA-ZG-2291 on the HIF pathway with that of ZG-2291. […] This may result from the limited action time of the reversible inhibitor, perhaps due to its metabolism. The overall results provide strong evidence that the light-induced, lysine-targeting irreversible covalent inhibitor NBA-ZG-2291 can effectively and sustainably engage FIH, leading to the upregulation of FIH-dependent HIF target gene expression.",
  "data": [
    {"smiles": "O=C(O)CNC(=O)c1ncc(-c2cc(-c3ccc(CO)c([N+](=O)[O-])c3)no2)cc1O", "note": "[NBA-ZG-2291]", "values": [
      {"measurement": "Upregulation of EGLN3", "setting": "0.3 μM, after 30 min light activation (365 nm, 16 W)", "result": 1.35, "unit": "fold"},
      {"measurement": "Upregulation of EGLN3 expression", "setting": "10 μM", "result": "did not result in significant upregulation"},
      {"measurement": "Increase of EGLN3 expression", "setting": "10 μM, with irradiation", "result": "~2.5", "unit": "fold"},
      {"measurement": "Upregulation of EGLN3 expression", "setting": "20 μM", "result": "very weak upregulation"},
      {"measurement": "Increase of EGLN3 expression, time course", "setting": "maintained from 6 to 48 h, after 30 min irradiation", "result": 2.5, "unit": "fold"}
    ]}
  ]
}
